# Several values for one entry are separate records, joined by “and”; a condition that tells them apart may be missing. Identical values can stand only once. Entries after “also recorded” stand apart in the source; their conditions may differ.
# How the values were obtained:
# bed bugs [1] = assay: Arena test of baits (52 cm arena, ten bed bugs, 30 minutes); type: in vivo; conditions: baits formulated using 3 wt % methylcellulose
# Description: In these tests bed bugs were placed in an arena and allowed to freely move around while the movement patterns were recorded, including in particular the time that bed bugs spent in proximity to each of the three different stations, each station comprising a bait (test compound) or control.
# The arena comprised a round (52 cm diameter) white painted metal tray with a 3.8 cm high rim. Evenly spaced half way between centrum and periphery three holes (3.4 cm diam) were bored. To prevent bed bug escape the rim was painted with Insect-a-Slip (#2871C Fluon, BioQuip Products, Inc. 2321 E, Chadwick St., Rancho Dominguez, Calif. 90220) resulting in a non-porous slippery, surface at the rim of the tray.
# Three plastic containers (34 mm diam×7 cm high), each with a net covered hole (18 mm diam) at the bottom to allow airflow, were attached below the holes at the underside of the arena using clay dough. At the start of an experiment the compounds/baits and controls were placed one in each container below the arena. […]
# Bed bugs, ten at a time, were introduced in separate vials into the middle of the arena and simultaneously video recording was started. […] At the end of the 30 minutes experimental period, the number of bed bugs in each container, and beneath or at the rim of the convex glass sheet above each container was scored. […] The final position was not recorded during early experiments. […]
# bed bugs [2] = assay: Arena test of individual compounds vs. blend (40 cm arena, synergy); type: in vivo; conditions: individual compound 100 mg/l in gelatine, five females and five males, N = 10
# Description: The following six tests were carried out: arena test of each of the five compounds a, b, e, f, and g individually and a test of the whole blend abefg. The procedure was the following.
# Gelatine solutions (lures) each containing a total of 100 mg/l of either (a) E-2-hexenal, (b) E-2-octenal, (e) E-2-hexenoic acid, (f) 2-octenoic acid and (g) 2-hexanone or the combination of the five compounds abefg were prepared.
# Five female and five male bedbugs were released into the centre of the arena in a dark room. The arena was lit with infrared light and after an initial 5 min acclimatization bed bugs were released in the middle of the arena and left for 30 minutes during which time their activity was video-recorded using an Infrared light camera coupled to Noldus Ethovision 15 program. At the end of the 30 minutes period, the bed bugs were manually collected and their positions recorded.
# After each replicate, the arena was cleaned with 70% ethanol and the position of the compound and controls were shifted. Ten replicates were made with each of the individual compound lures and the whole blend totalling 60 tests comprising 600 bed bugs, 300 females and 300 males. […] This value was subtracted from the number of bed bugs attracted to each lure correcting for the random part in the attraction in each replicate. The corrected values were used to calculate the average number of bed bugs attracted to each individual lure chemical and to the lure blend.
# [3] = Dynamic headspace collection of volatiles from bait, GC-MS; type: physicochemical; conditions: abefg 1:1:1:1:1 in gelatine 100 mg/l of each compound
# Description: After collection of the enfleurage samples head-space collections were made from each container using a special lid into which an adsorbent plug was inserted. The head-space of all containers in a replicate was collected simultaneously under dark conditions (except the first samples of replicate one) using battery operated membrane pumps. The air-flow through each container was adjusted to 35-40 ml/min. The head-space samples were collected for 2 hours for replicate one to three after the first week, but was extended to 4-6 hours for replicate 4 & 5 and for all replicates and collections after the second week. This was done to secure more material as the first samples were very weak.
# The samples were analyzed on a gas chromatograph (GC, Hewlett-Packard 6890 Series) equipped with a polar capillary column (Innowax; 30 m long, 0.25 mm i.d. and film thickness 0.25 μm Agilent Technologies USA) coupled to a mass spectrometer (Hewlett-Packard 5973 Mass Selective Detector). The injector temperature was 225° C. and the injection splitless. The GC temperature was programmed for 2 min at 40° C. followed by a gradual increase of 8°/min to 225° C., where the temperature was held steady for five min. Compounds were identified against the spectra and retention times of authentic reference compounds or in a few cases against the spectral libraries of ADAM and NIST2011.
# One of the baits used in the Arena test was placed in a container and the dynamic headspace was collected as described in example 1 and analysed using Gas chromatography-Mass spectroscopy (GC-MS).
# [4] = Stability / shelf-life of baits; type: physicochemical; conditions: ascorbic acid included in gelatine baits
# From the text: The inclusion of ascorbic acid was thus subsequently discontinued.
Compound,attractive effect in (initial) Arena tests (bed bugs [1]),"No. of bed bugs at test compound position at end of experiment (average, corrected for random attraction to controls) (bed bugs [2])",AMOUNT in headspace of bait ([3]; Sample no. 15:209-213) [nano gram/hour],AMOUNT in headspace of bait ([3]; Sample no. 15:215-219) [nano gram/hour],AMOUNT in headspace of bait ([3]; Sample no. 15:245.1-5) [nano gram/hour],AMOUNT in headspace of bait ([3]; Sample no. 16:02.1-5) [nano gram/hour],AMOUNT in headspace of bait ([3]; Sample no. 16.37-40) [nano gram/hour],effect of anti-oxidant on baits / shelf-life of the composition [4]
CCC(=O)/C=C/C=O [4-Oxo-(E)-2-hexenal],"no attractive effect, rather as having a repulsive effect",,,,,,,
"CCCCC(=O)/C=C/C=O [4-oxo-(E)-2-octenal, 4-Oxo-(E)-2-octenal]","no attractive effect, rather as having a repulsive effect",,,,,,,
"CCC/C=C/C=O [(a) E-2-hexenal, (E)-2-hexenal]",,slightly deterrent effect and −0.50,,,,,,
"CCCCC/C=C/C=O [(b) E-2-octenal, (E)-2-octenal]",,1.35,,,,,,
"CCC/C=C/C(=O)O [(e) E-2-hexenoic acid, (E)-2-hexenoic acid]",,0.55,0.2,3.1,0,1.4,0.08,
"CCCCCC=CC(=O)O [(f) E-2-octenic acid, 2-Octenoic acid]",,0.35,,,,,,
"CCCCC(C)=O [(g) 2-hexanone, 2-Hexanone]",,1.35,429.1,310.3,168.2,76.1,402.0,
O=C1O[C@H]([C@@H](O)CO)C(O)=C1O [ascorbic acid],,,,,,,,degraded the baits and resulted in lower efficiency of the baits; also recorded: decreased the shelf-life of the composition
(E)-octenoic acid,,,0,0.8,0,0,0.01,
(Z)- & (E)-2-Hexenal,,,565.6,234.6,136.3,102.2,258.3,
(Z)- & (E)-2-octenal,,,914.5,477.6,438.5,405.2,349.9,
